Assay results as given in ChEMBL document CHEMBL1671754, “Reduced expression of the vca0421 gene of Vibrio cholerae O1 results in innate resistance to ciprofloxacin” (2010).
Values after ≈ are worked out from the molar mass of the structure shown.

Legend:
Assay type in all cases: functional
[1] = Antibacterial activity against Vibrio cholerae O1 569B harboring gyrA and parC genes by 2-fold agar dilution method
[2] = Antibacterial activity against Vibrio cholerae O1 mTn-321 harboring Ser to Ile mutation at 83 position in gyrA and parC genes by 2-fold agar dilution method
[3] = tested on: Escherichia coli; test: Antibacterial activity against Escherichia coli JM109 harboring plasmid ptac85-vca0421
[4] = Antibacterial activity against Vibrio cholerae O1 CIP0.25-1 harboring Ser to Ile mutation at 83 position in gyrA and parC genes by 2-fold agar dilution method
[5] = tested on: Escherichia coli; test: Antibacterial activity against Escherichia coli JM109 harboring plasmid ptac85

| SMILES | MIC [1] | MIC [2] | MIC [3] | MIC [4] | MIC [5] |
| --- | --- | --- | --- | --- | --- |
| O=C(O)c1cn(C2CC2)c2cc(N3CCNCC3)c(F)cc2c1=O [CIPROFLOXACIN] | 0.004 µg/mL (≈ 0.0121 µM) | – | – | – | – |
| CCn1cc(C(=O)O)c(=O)c2cc(F)c(N3CCNCC3)nc21 [ENOXACIN] | 0.0313 µg/mL (≈ 0.0977 µM) | 0.25 µg/mL (≈ 0.78 µM) | 2 µg/mL (≈ 6.24 µM) | 2 µg/mL (≈ 6.24 µM) | 4 µg/mL (≈ 12.5 µM) |
| CCn1cc(C(=O)O)c(=O)c2cc(F)c(N3CCNCC3)cc21 [NORFLOXACIN] | 0.0078 µg/mL (≈ 0.0244 µM) | 0.125 µg/mL (≈ 0.391 µM) | 1 µg/mL (≈ 3.13 µM) | 2 µg/mL (≈ 6.26 µM) | 1 µg/mL (≈ 3.13 µM) |
| C[C@@H]1CN(c2c(F)c(N)c3c(=O)c(C(=O)O)cn(C4CC4)c3c2F)C[C@H](C)N1 [SPARFLOXACIN] | 0.004 µg/mL (≈ 0.0102 µM) | 0.0625 µg/mL (≈ 0.159 µM) | 0.125 µg/mL (≈ 0.319 µM) | 0.125 µg/mL (≈ 0.319 µM) | 0.25 µg/mL (≈ 0.637 µM) |
| CN(C)[C@@H]1C(O)=C(C(N)=O)C(=O)[C@@]2(O)C(O)=C3C(=O)c4c(O)cccc4[C@@](C)(O)[C@H]3C[C@@H]12 [TETRACYCLINE] | 0.5 µg/mL (≈ 1.13 µM) | – | 8 µg/mL (≈ 18 µM) | 4 µg/mL (≈ 9 µM) | 16 µg/mL (≈ 36 µM) |
